Results: patent publication US8895585B2, “Nicotinamide derivative or salt thereof” (FUJIFILM Corporation, priority 2010, dated 2014)
Where two headings read alike, the source gives them in different places.

Legend:
[1] = target: T1, glutathione S-transferase (GST)-fused full-length human Syk protein (Homo sapiens, UniProt P43405); assay: Syk enzyme assay; format: biochemical; conditions: Syk enzyme assay, Test Example 1; read-out: IC50 of Syk-inhibitory activity
T1 construct: (GST)-fused full-length human Syk protein; GST (glutathione S-transferase); purchased Carna Biosciences
Outline: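 IC50 values come from a time-resolved FRET readout (615 and 665 nm) of substrate phosphorylation, measured after an EDTA stop and 1 h antibody binding. The kinase reaction ran 40 min at room temperature with 27 μM ATP and 0.4 μM biotin-peptide, following a 15 min compound preincubation with baculovirus-made GST-full-length human Syk.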

THP-1 cells = assay: TNFα generation assay; format: cell-based, human; conditions: Table 22, read-out: IC50 in TNFα generation assay
Outline: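 THP-1 cells differentiated to macrophage-like cells with 10 ng/ml IFN-γ for 2 days, preincubated with compound 30 min at room temperature, then cultured 7 h on plates coated with human IgG (10 μg/ml). Secreted TNFα measured by ELISA or AlphaLISA.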

[2] = Homo sapiens, THP-1, THP-1 cells

NC(=O)c1cc(F)c(N[C@@H]2CCCC[C@@H]2N)nc1Nc1ccc2c(cnn2C2CC2)c1 [Example 006-472, 6-(((1R,2S)-2-aminocyclohexyl)amino)-2-((1-cyclopropyl-1H-indazol-5-yl)amino)-5-fluoronicotinamide]
IC50 [1]: < 10 nM
IC50 (THP-1 cells; [2]): 65 to 130 nM

CCOc1cc(Nc2nc(NC3CCCCC3N)c(F)cc2C(N)=O)ccn1 (stereo not shown) [Example 002-060]
IC50 [1]: < 10 nM
IC50 (THP-1 cells; [2]): 65 to 130 nM

COCCOc1cccc(-c2cncc(Nc3nc(N[C@@H]4CCCC[C@@H]4N)c(F)cc3C(N)=O)c2)c1 (relative stereo) [Example 004-109, 6-(cis-2-aminocyclohexylamino)-5-fluoro-2-((5-(3-(2-methoxyethoxy)phenyl)pyridin-3-yl)-amino)nicotinamide]
IC50 [1]: < 10 nM
IC50 (THP-1 cells; [2]): 130 to 200 nM

NC(=O)c1cc(F)c(NC[C@@H](N)c2ccccn2)nc1Nc1ccc2ncccc2c1 [Example 014-017, (R)-6-((2-amino-2-(pyridin-2-yl)ethyl)amino)-5-fluoro-2-((quinolin-6-yl)amino)nicotinamide]
IC50 [1]: < 10 nM
IC50 (THP-1 cells; [2]): 130 to 200 nM

NC[C@H](Nc1nc(Nc2cccc(-n3nccn3)c2)c(C(N)=O)cc1F)c1ccccc1 [Example 006-132, (R)-2-((3-(2H-1,2,3-triazol-2-yl)phenyl)amino)-6-((2-amino-1-phenylethyl)amino)-5-fluoronicotinamide]
IC50 [1]: < 10 nM
IC50 (THP-1 cells; [2]): 130 to 200 nM

Cc1ncc(Nc2nc(N[C@H](C3CCC3)[C@H](C)N)c(F)cc2C(N)=O)cc1-n1nccn1 [Example 006-598, 6-(((1R,2S)-2-amino-1-cyclobutylpropyl)amino)-5-fluoro-2-((6-methyl-5-(2H-1,2,3-triazol-2-yl)pyridin-3-yl)amino)nicotinamide]
IC50 [1]: < 10 nM
IC50 (THP-1 cells; [2]): 130 to 200 nM

CCc1nn(C)c2ccc(Nc3nc(N[C@H](C4CC4)[C@H](C)N)c(F)cc3C(N)=O)cc12 [Example 006-578, 6-(((1R,2S)-2-amino-1-cyclopropylpropyl)amino)-2-((3-ethyl-1-methyl-1H-indazol-5-yl)amino)-5-fluoronicotinamide]
IC50 [1]: < 10 nM
IC50 (THP-1 cells; [2]): 65 to 130 nM

COCCOc1nccc2cc(Nc3nc(N[C@@H]4CCCC[C@@H]4N)c(F)cc3C(N)=O)ccc12 (relative stereo) [Example 004-168, 6-(cis-2-aminocyclohexylamino)-5-fluoro-2-((1-(2-methoxyethoxy)isoquinolin-6-yl)amino)-nicotinamide]
IC50 [1]: < 10 nM
IC50 (THP-1 cells; [2]): 130 to 200 nM

COc1ncc(Nc2nc(N[C@@H]3CCCC[C@@H]3N)c(F)cc2C(N)=O)cc1F [Example 006-484, 6-(((1R,2S)-2-aminocyclohexyl)amino)-5-fluoro-2-((5-fluoro-6-methoxypyridin-3-yl)amino)nicotinamide]
IC50 [1]: 10 to 50 nM
IC50 (THP-1 cells; [2]): 65 to 130 nM

CCCC[C@@H](Nc1nc(Nc2cnc(C)c(-n3nccn3)c2)c(C(N)=O)cc1F)[C@H](C)N [Example 006-390, 6-(((2S,3R)-2-aminoheptan-3-yl)amino)-5-fluoro-2-((6-methyl-5-(2H-1,2,3-triazol-2-yl)pyridin-3-yl)amino)nicotinamide]
IC50 [1]: < 10 nM
IC50 (THP-1 cells; [2]): 65 to 130 nM

COCCOc1ccc2cc(Nc3nc(N[C@@H]4CCCC[C@@H]4N)c(F)cc3C(N)=O)cnc2c1 (relative stereo) [Example 004-127, 6-(cis-2-aminocyclohexylamino)-5-fluoro-2-((7-(2-methoxyethoxy)quinolin-3-yl)amino)-nicotinamide]
IC50 [1]: < 10 nM
IC50 (THP-1 cells; [2]): 130 to 200 nM

CCn1ncc2ccc(Nc3nc(N[C@H](C4CC4)[C@H](C)N)c(F)cc3C(N)=O)cc21 [Example 006-581, 6-(((1R,2S)-2-amino-1-cyclopropylpropyl)amino)-2-((1-ethyl-1H-indazol-6-yl)amino)-5-fluoronicotinamide]
IC50 [1]: < 10 nM
IC50 (THP-1 cells; [2]): < 65 nM

CCc1nn(CC)c2ccc(Nc3nc(N[C@H](CC4CC4)[C@H](C)N)c(F)cc3C(N)=O)cc12 [Example 006-506, 6-(((2R,3S)-3-amino-1-cyclopropylbutan-2-yl)amino)-2-((1,3-diethyl-1H-indazol-5-yl)amino)-5-fluoronicotinamide]
IC50 [1]: < 10 nM
IC50 (THP-1 cells; [2]): 130 to 200 nM

NC(=O)c1cc(F)c(N[C@@H]2CCCC[C@@H]2N)nc1Nc1cncc(F)c1 (relative stereo) [Example 004-105, 6-(cis-2-aminocyclohexylamino)-5-fluoro-2-((5-fluoropyridin-3-yl)amino)nicotinamide]
IC50 [1]: 10 to 50 nM
IC50 (THP-1 cells; [2]): 130 to 200 nM

COc1cc(Nc2nc(NCCN)c(F)cc2C(N)=O)cc(OC)c1 [Example 008-001]
IC50 [1]: 10 to 50 nM
IC50 (THP-1 cells; [2]): 65 to 130 nM

NC[C@H](Nc1nc(Nc2ccc3ncccc3c2)c(C(N)=O)cc1F)C1CC1 [Example 006-186, (R)-6-((2-amino-1-cyclopropylethyl)amino)-5-fluoro-2-((quinolin-6-yl)amino)nicotinamide]
IC50 [1]: < 10 nM
IC50 (THP-1 cells; [2]): < 65 nM

COc1cccc(-c2cncc(Nc3nc(N[C@@H]4CCCC[C@@H]4N)c(F)cc3C(N)=O)c2)c1 (relative stereo) [Example 004-113, 6-(cis-2-aminocyclohexylamino)-5-fluoro-2-((5-(3-methoxyphenyl)pyridin-3-yl)amino)-nicotinamide]
IC50 [1]: < 10 nM
IC50 (THP-1 cells; [2]): 130 to 200 nM

CC[C@@H](Nc1nc(Nc2cncc(-n3cccn3)c2)c(C(N)=O)cc1F)[C@H](C)N [Example 006-218, 2-((5-(1H-pyrazol-1-yl)pyridin-3-yl)amino)-6-(((2S,3R)-2-aminopentan-3-yl)amino)-5-fluoronicotinamide]
IC50 [1]: < 10 nM
IC50 (THP-1 cells; [2]): 65 to 130 nM

COc1cccc(-c2cncc(Nc3nc(N[C@@H]4CCCC[C@@H]4N)c(F)cc3C(N)=O)c2)c1F (relative stereo) [Example 004-197, 6-(cis-2-aminocyclohexylamino)-5-fluoro-2-((5-(2-fluoro-3-methoxyphenyl)pyridin-3-yl)amino)nicotinamide]
IC50 [1]: < 10 nM
IC50 (THP-1 cells; [2]): 65 to 130 nM

NC(=O)c1cc(F)c(NC2CCCCC2N)nc1Nc1cccc2[nH]ncc12 (stereo not shown) [Example 002-025]
IC50 [1]: < 10 nM
IC50 (THP-1 cells; [2]): 65 to 130 nM

COCCn1ncc2c(Nc3nc(NC4CCCCC4N)c(F)cc3C(N)=O)cccc21 (stereo not shown) [Example 002-030]
IC50 [1]: < 10 nM
IC50 (THP-1 cells; [2]): 130 to 200 nM

COc1ccc2cc(Nc3nc(N[C@@H]4CCCC[C@@H]4N)c(F)cc3C(N)=O)cnc2c1 [Example 006-172, 6-(((1R,2S)-2-aminocyclohexyl)amino)-5-fluoro-2-((7-methoxyquinolin-3-yl)amino)nicotinamide]
IC50 [1]: < 10 nM
IC50 (THP-1 cells; THP-1 cells): 65 to 130 nM

CC(C)C[C@@H](Nc1nc(Nc2ccc3ncccc3c2)c(C(N)=O)cc1F)[C@H](C)N [Example 006-209, 6-(((2S,3R)-2-amino-5-methylhexan-3-yl)amino)-5-fluoro-2-((quinolin-6-yl)amino)nicotinamide]
IC50 [1]: < 10 nM
IC50 (THP-1 cells; [2]): 65 to 130 nM

CC[C@@H](Nc1nc(Nc2ccnc(-c3ccco3)c2)c(C(N)=O)cc1F)[C@H](C)N [Example 006-256, 6-(((2S,3R)-2-aminopentan-3-yl)amino)-5-fluoro-2-((2-(furan-2-yl)pyridin-4-yl)amino)nicotinamide]
IC50 [1]: < 10 nM
IC50 (THP-1 cells; [2]): 65 to 130 nM

NC(=O)c1cc(F)c(N[C@@H]2CCCC[C@@H]2N)nc1Nc1cnc(-n2cccn2)c(-n2nccn2)c1 [Example 006-449, 2-((6-(1H-pyrazol-1-yl)-5-(2H-1,2,3-triazol-2-yl)pyridin-3-yl)amino)-6-(((1R,2S)-2-aminocyclohexyl)amino)-5-fluoronicotinamide]
IC50 [1]: 50 to 100 nM
IC50 (THP-1 cells; [2]): 130 to 200 nM

CCc1nn(C)c2ccc(Nc3nc(N[C@H](CC)[C@H](C)N)c(F)cc3C(N)=O)cc12 [Example 006-539, 6-(((2S,3R)-2-aminopentan-3-yl)amino)-2-((3-ethyl-1-methyl-1H-indazol-5-yl)amino)-5-fluoronicotinamide]
IC50 [1]: < 10 nM
IC50 (THP-1 cells; [2]): 130 to 200 nM

CCC[C@@H](Nc1nc(Nc2cncc(-c3ccc(OC)cc3)c2)c(C(N)=O)cc1F)[C@H](C)N [Example 006-285, 6-(((2S,3R)-2-aminohexan-3-yl)amino)-5-fluoro-2-((5-(4-methoxyphenyl)pyridin-3-yl)amino)nicotinamide]
IC50 [1]: < 10 nM
IC50 (THP-1 cells; [2]): 65 to 130 nM

NC(=O)c1cc(F)c(N[C@H](Cc2ccccc2)C(N)=O)nc1Nc1ccnc2c1ccn2CC1CC1 [Example 004-046]
IC50 [1]: < 10 nM
IC50 (THP-1 cells; [2]): 130 to 200 nM

Cc1cc(Nc2nc(N[C@H](C3CC3)[C@H](C)N)c(F)cc2C(N)=O)cnc1C [Example 006-434, 6-(((1R,2S)-2-amino-1-cyclopropylpropyl)amino)-2-((5,6-dimethylpyridin-3-yl)amino)-5-fluoronicotinamide]
IC50 [1]: 50 to 100 nM
IC50 (THP-1 cells; [2]): < 65 nM

CC(N)CNc1nc(Nc2ccc3ncccc3c2)c(C(N)=O)cc1F (stereo not shown) [Example 014-009]
IC50 [1]: < 10 nM
IC50 (THP-1 cells; [2]): < 65 nM

NC(=O)c1cc(F)c(N[C@@H]2CCCC[C@@H]2N)nc1Nc1cccc2c1cnn2C1CC1 [Example 006-474, 6-(((1R,2S)-2-aminocyclohexyl)amino)-2-((1-cyclopropyl-1H-indazol-4-yl)amino)-5-fluoronicotinamide]
IC50 [1]: < 10 nM
IC50 (THP-1 cells; [2]): 65 to 130 nM

COCCn1ncc2cc(Nc3nc(N[C@H](CC4CC4)[C@H](C)N)c(F)cc3C(N)=O)ccc21 [Example 006-343, 6-(((2R,3S)-3-amino-1-cyclopropylbutan-2-yl)amino)-5-fluoro-2-((1-(2-methoxyethyl)-1H-indazol-5-yl)amino)nicotinamide]
IC50 [1]: < 10 nM
IC50 (THP-1 cells; [2]): 65 to 130 nM
